Laboratory results as given in PubChem BioAssay AID248 (DTP/NCI, 2004).
Toxic doses and inconclusive results are not listed. No stated cut-off is given here; in the data, active means T/C of 150% or more; inactive means T/C below 125%.

Tested on: L1210 leukemia ip in BDF1 mice, survival T/C
Experiment: NCI In Vivo Anticancer Drug Screen. Data for tumor model L1210 Leukemia (intraperitoneal) in B6D2F1 (BDF1) mice
Details: endpoint: mean survival time, higher = longer survival
How it was run: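 Antitumor effect is assessed in tumor-bearing animals. Survival in the compound arm is compared with a vehicle-dosed control arm and expressed as their quotient.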

[1] = dose: 75.0 mg/kg/injection, schedule: Q04DX003 (ip), vehicle: saline
[2] = dose: 100.0 mg/kg/injection, schedule: Q04DX003 (ip), vehicle: saline with Tween-80
[3] = dose: 150.0 mg/kg/injection, schedule: Q04DX003 (ip), vehicle: saline
[4] = dose: 200.0 mg/kg/injection, schedule: Q04DX003 (ip), vehicle: saline with Tween-80
[5] = dose: 300.0 mg/kg/injection, schedule: Q04DX003 (ip), vehicle: saline
[6] = dose: 400.0 mg/kg/injection, schedule: Q04DX003 (ip), vehicle: saline with Tween-80
[7] = dose: 100.0 mg/kg/injection, schedule: Q04DX003 (ip), vehicle: saline
[8] = dose: 200.0 mg/kg/injection, schedule: Q04DX003 (ip), vehicle: saline
[9] = dose: 100.0 mg/kg/injection, schedule: Q01DX001 (ip), vehicle: Klucel (hydroxypropylcellulose) (HPC)
[10] = dose: 100.0 mg/kg/injection, schedule: Q01DX009 (ip), vehicle: saline with Tween-80
[11] = dose: 200.0 mg/kg/injection, schedule: Q01DX001 (ip), vehicle: Klucel (hydroxypropylcellulose) (HPC)
[12] = dose: 200.0 mg/kg/injection, schedule: Q01DX009 (ip), vehicle: saline with Tween-80
[13] = dose: 400.0 mg/kg/injection, schedule: Q01DX001 (ip), vehicle: Klucel (hydroxypropylcellulose) (HPC)
[14] = dose: 400.0 mg/kg/injection, schedule: Q01DX009 (ip), vehicle: saline with Tween-80
[15] = dose: 100.0 mg/kg/injection, schedule: Q01DX001 (ip), vehicle: saline
[16] = dose: 200.0 mg/kg/injection, schedule: Q01DX001 (ip), vehicle: saline
[17] = dose: 100.0 mg/kg/injection, schedule: Q04DX003 (ip), vehicle: Klucel (hydroxypropylcellulose) (HPC)
[18] = dose: 200.0 mg/kg/injection, schedule: Q04DX003 (ip), vehicle: Klucel (hydroxypropylcellulose) (HPC)
[19] = dose: 400.0 mg/kg/injection, schedule: Q04DX003 (ip), vehicle: Klucel (hydroxypropylcellulose) (HPC)

Measured: T/C

NC(Cn1ccc(=O)c(O)c1)C(=O)O (stereo unspecified)
inactive: dose: 50.0 mg/kg/injection, schedule: Q01DX009 (ip), vehicle: saline 105 % of control | [1] 103 % of control | dose: 100.0 mg/kg/injection, schedule: Q01DX009 (ip), vehicle: saline 102 % of control | [2] 95 % of control | dose: 111.0 mg/kg/injection, schedule: Q01DX Z (ip), vehicle: saline 92 % of control | [3] 92 % of control | dose: 178.0 mg/kg/injection, schedule: Q01DX Z (ip), vehicle: saline 95 % of control | dose: 200.0 mg/kg/injection, schedule: Q01DX009 (ip), vehicle: saline 102 % of control | [4] 94 % of control | dose: 267.0 mg/kg/injection, schedule: Q01DX Z (ip), vehicle: saline 108 % of control | [5] 90 % of control | dose: 400.0 mg/kg/injection, schedule: Q01DX Z (ip), vehicle: saline 93 % of control | [6] 100 % of control | dose: 800.0 mg/kg/injection, schedule: Q01DX009 (ip), vehicle: saline 111 % of control

O=C(C[N+]12CCC(O)C1C(CO)CC2)c1ccc(Br)cc1 (stereo unspecified)
inactive: [7] 96 % of control | [8] 89 % of control

COC(OC)c1nc(N)[nH]c(=O)c1Cc1ccc(Br)cc1
inactive: [9] 105 % of control | [10] 93 % of control | [2] 106 % of control | [11] 108 % of control | [12] 102 % of control | [4] 97 % of control | [13] 108 % of control | [14] 96 % of control | [6] 97 % of control

CC(=O)Oc1c2c(n3c1CCC3)CC(C)(C)CC2=O
inactive: dose: 75.0 mg/kg/injection, schedule: Q04DX002 (ip), vehicle: Klucel (hydroxypropylcellulose) (HPC) 102 % of control | dose: 150.0 mg/kg/injection, schedule: Q04DX002 (ip), vehicle: Klucel (hydroxypropylcellulose) (HPC) 97 % of control | dose: 300.0 mg/kg/injection, schedule: Q04DX002 (ip), vehicle: Klucel (hydroxypropylcellulose) (HPC) 87 % of control

c1cc[c]([Pb]([S]c2ncnc3c2nc[n]3[Pb]([c]2ccccc2)([c]2ccccc2)[c]2ccccc2)([c]2ccccc2)[c]2ccccc2)cc1.c1cc[c]([Pb]([S]c2ncnc3nc[nH]c23)([c]2ccccc2)[c]2ccccc2)cc1
inactive: dose: 5.0 mg/kg/injection, schedule: Q01DX001 (ip), vehicle: other 103 % of control | dose: 10.0 mg/kg/injection, schedule: Q01DX001 (ip), vehicle: other 121 % of control

Cc1ccc(C[n+]2cccc(NC(=O)COc3ccc(Cl)c(Cl)c3)c2)cc1
inactive: [2] 95 % of control | [4] 93 % of control | [6] 98 % of control

CC(O)C[As](=O)(O)c1cccc(Cl)c1 (stereo unspecified)
inactive: dose: 12.5 mg/kg/injection, schedule: Q01DX001 (ip), vehicle: Klucel (hydroxypropylcellulose) (HPC) 108 % of control

COC(=O)C1(C)CCCC2(C)C3CCC4(C)CC3(CCC12)OC4C (stereo unspecified)
inactive: dose: 100.0 mg/kg/injection, schedule: Q04DX002 (ip), vehicle: saline with Tween-80 95 % of control | dose: 200.0 mg/kg/injection, schedule: Q04DX002 (ip), vehicle: saline with Tween-80 100 % of control | dose: 400.0 mg/kg/injection, schedule: Q04DX002 (ip), vehicle: saline with Tween-80 89 % of control

CC(=O)N(C)c1ccc(NC(=O)Nc2cccc(C(F)(F)F)c2)cc1
inactive: [10] 94 % of control | [12] 99 % of control | [14] 97 % of control

c1ccc2c(OCC3=NCCN3)cccc2c1
inactive: dose: 20.0 mg/kg/injection, schedule: Q01DX001 (ip), vehicle: Klucel (hydroxypropylcellulose) (HPC) 104 % of control | dose: 25.0 mg/kg/injection, schedule: Q01DX009 (ip), vehicle: Klucel (hydroxypropylcellulose) (HPC) 105 % of control | dose: 40.0 mg/kg/injection, schedule: Q01DX001 (ip), vehicle: Klucel (hydroxypropylcellulose) (HPC) 104 % of control | dose: 50.0 mg/kg/injection, schedule: Q01DX009 (ip), vehicle: Klucel (hydroxypropylcellulose) (HPC) 106 % of control | dose: 80.0 mg/kg/injection, schedule: Q01DX001 (ip), vehicle: Klucel (hydroxypropylcellulose) (HPC) 102 % of control | [9] 109 % of control

O=C1C2=C(C(=O)c3ccccc31)C1C=CC2CC1
inactive: dose: 50.0 mg/kg/injection, schedule: Q01DX001 (ip), vehicle: carboxymethylcellulose (CMC) 111 % of control | dose: 100.0 mg/kg/injection, schedule: Q01DX001 (ip), vehicle: carboxymethylcellulose (CMC) 101 % of control

O=C(COc1ccc(Cl)cc1Cl)Nc1ncn[nH]1
inactive: [9] 101 % of control | [11] 104 % of control | [13] 95 % of control

COc1ccc(OC)c2c(C)cc(=O)[nH]c12
inactive: [15] 97 % of control | [16] 98 % of control

CCCCCCCCCCCC(=O)N1CCCCC1
inactive: dose: 100.0 mg/kg/injection, schedule: Q01DX001 (ip), vehicle: saline with Tween-80 101 % of control | dose: 200.0 mg/kg/injection, schedule: Q01DX001 (ip), vehicle: saline with Tween-80 97 % of control | dose: 400.0 mg/kg/injection, schedule: Q01DX001 (ip), vehicle: saline with Tween-80 89 % of control

CC(C)=NOS(=O)(=O)c1ccc(C)cc1
inactive: dose: 75.0 mg/kg/injection, schedule: Q01DX009 (ip), vehicle: saline 103 % of control | [1] 88 % of control | dose: 150.0 mg/kg/injection, schedule: Q01DX009 (ip), vehicle: saline 98 % of control | [3] 92 % of control | dose: 300.0 mg/kg/injection, schedule: Q01DX009 (ip), vehicle: saline 101 % of control | [5] 88 % of control

Cc1c(Cl)cc(Cl)c(N)c1Cl
inactive: [2] 100 % of control | [4] 98 % of control | [6] 96 % of control

CC(C)OP(=S)(S)OC(C)C
inactive: [7] 112 % of control | [8] 96 % of control | dose: 400.0 mg/kg/injection, schedule: Q04DX003 (ip), vehicle: saline 102 % of control

CCOC(=O)CC(=O)c1ccc(OCCOc2ccc(C(C)(C)CC(C)(C)C)cc2)cc1
inactive: dose: 100.0 mg/kg/injection, schedule: Q01DX009 (ip), vehicle: Klucel (hydroxypropylcellulose) (HPC) 95 % of control | [17] 89 % of control | dose: 200.0 mg/kg/injection, schedule: Q01DX009 (ip), vehicle: Klucel (hydroxypropylcellulose) (HPC) 97 % of control | [18] 96 % of control | dose: 400.0 mg/kg/injection, schedule: Q01DX009 (ip), vehicle: Klucel (hydroxypropylcellulose) (HPC) 87 % of control | [19] 86 % of control

O=C1OCCN1S(=O)(=O)c1ccc(Cl)cc1
inactive: [17] 104 % of control | [18] 95 % of control | [19] 96 % of control

CC(C)CCNCC(C)OC(=O)c1ccc([N+](=O)[O-])cc1 (stereo unspecified)
inactive: dose: 75.0 mg/kg/injection, schedule: Q01DX001 (ip), vehicle: other 98 % of control | dose: 150.0 mg/kg/injection, schedule: Q01DX001 (ip), vehicle: other 106 % of control | dose: 300.0 mg/kg/injection, schedule: Q01DX001 (ip), vehicle: other 95 % of control

O=c1[nH]cnc2c(C3OC(CO)C(O)C3O)[nH]nc12 (stereo unspecified)
inactive: dose: 10.0 mg/kg/injection, schedule: Q01DX015 (ip), vehicle: carboxymethylcellulose (CMC) 86 % of control | dose: 20.0 mg/kg/injection, schedule: Q01DX015 (ip), vehicle: carboxymethylcellulose (CMC) 88 % of control

CCCCCCCCN1N=C(C)CCC1=O
inactive: [15] 101 % of control | [16] 90 % of control | dose: 400.0 mg/kg/injection, schedule: Q01DX001 (ip), vehicle: saline 101 % of control

Cc1ncc(C)c(=O)[nH]1
inactive: dose: 44.0 mg/kg/injection, schedule: Q01DX Z (ip), vehicle: saline 100 % of control | dose: 67.0 mg/kg/injection, schedule: Q01DX Z (ip), vehicle: saline 105 % of control | dose: 100.0 mg/kg/injection, schedule: Q01DX Z (ip), vehicle: saline 105 % of control | [7] 93 % of control | dose: 150.0 mg/kg/injection, schedule: Q01DX Z (ip), vehicle: saline 91 % of control | [8] 96 % of control
